Test results: ChEMBL document CHEMBL3734669, “Δ(5)-Cholenoyl-amino acids as selective and orally available antagonists of the Eph-ephrin system” (Eur J Med Chem, 2015)
pEC50, pIC50: −log10 of the molar value. ≈ marks a conversion by molar mass, not a printed value. Calls of active or inactive are those of the source. The rule behind the calls is not given here.

How the values were obtained:
[1] = molecular target: T1, Ephrin type-A receptor 2 (Homo sapiens, UniProt P29317); assay: Displacement of biotinylated-ephrin-A1-Fc from EphA2-Fc receptor (unknown origin) preincubated for 1 hr followed by biotinylated-ephrin-A1-Fc addition measured after 4 hrs by ELISA
T1 sequence (P29317 whole entry): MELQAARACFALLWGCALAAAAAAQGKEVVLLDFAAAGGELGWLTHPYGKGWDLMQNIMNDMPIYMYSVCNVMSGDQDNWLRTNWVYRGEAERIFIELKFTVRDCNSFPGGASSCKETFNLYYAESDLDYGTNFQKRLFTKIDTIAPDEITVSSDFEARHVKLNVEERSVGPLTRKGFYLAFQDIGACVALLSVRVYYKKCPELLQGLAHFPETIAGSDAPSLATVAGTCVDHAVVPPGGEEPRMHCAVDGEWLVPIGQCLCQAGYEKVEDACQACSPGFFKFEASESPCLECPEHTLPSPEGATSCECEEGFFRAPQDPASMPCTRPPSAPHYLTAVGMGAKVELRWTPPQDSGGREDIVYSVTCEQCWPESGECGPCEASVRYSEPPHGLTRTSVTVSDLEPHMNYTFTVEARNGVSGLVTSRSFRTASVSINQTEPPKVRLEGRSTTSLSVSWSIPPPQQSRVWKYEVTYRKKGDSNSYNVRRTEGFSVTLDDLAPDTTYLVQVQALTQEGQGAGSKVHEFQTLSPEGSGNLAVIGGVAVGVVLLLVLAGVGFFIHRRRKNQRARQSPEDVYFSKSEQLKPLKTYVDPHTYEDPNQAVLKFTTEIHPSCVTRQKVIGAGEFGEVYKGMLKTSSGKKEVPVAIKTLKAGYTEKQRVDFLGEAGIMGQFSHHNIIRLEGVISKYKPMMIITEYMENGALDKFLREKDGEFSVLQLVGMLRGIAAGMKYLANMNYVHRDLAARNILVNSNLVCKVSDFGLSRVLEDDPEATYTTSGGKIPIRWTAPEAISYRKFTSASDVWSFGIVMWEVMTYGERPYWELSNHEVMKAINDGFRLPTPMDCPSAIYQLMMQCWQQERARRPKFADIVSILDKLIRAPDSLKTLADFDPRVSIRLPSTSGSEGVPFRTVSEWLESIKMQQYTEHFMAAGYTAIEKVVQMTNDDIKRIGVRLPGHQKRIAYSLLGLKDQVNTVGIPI

[2] = molecular target: T2, G-protein coupled bile acid receptor 1 (Homo sapiens, UniProt Q8TDU6); assay: Agonist activity at TGR5 (unknown origin) assessed as cAMP level; assay type: functional
T2 sequence (Q8TDU6 whole entry): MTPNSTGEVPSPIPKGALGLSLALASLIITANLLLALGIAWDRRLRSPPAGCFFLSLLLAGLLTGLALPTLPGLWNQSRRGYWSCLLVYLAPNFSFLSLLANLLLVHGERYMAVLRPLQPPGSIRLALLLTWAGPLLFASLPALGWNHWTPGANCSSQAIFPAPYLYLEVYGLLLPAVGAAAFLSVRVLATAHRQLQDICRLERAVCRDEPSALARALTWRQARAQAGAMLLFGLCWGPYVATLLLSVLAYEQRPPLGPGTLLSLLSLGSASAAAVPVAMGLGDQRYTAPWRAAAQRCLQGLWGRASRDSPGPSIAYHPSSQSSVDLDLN

[3] = molecular target: T3, Nuclear receptor subfamily 1 group I member 2 (Homo sapiens, UniProt O75469); assay: Activation of human recombinant PXR up to 10 uM by alphascreen method
T3 sequence (O75469 whole entry): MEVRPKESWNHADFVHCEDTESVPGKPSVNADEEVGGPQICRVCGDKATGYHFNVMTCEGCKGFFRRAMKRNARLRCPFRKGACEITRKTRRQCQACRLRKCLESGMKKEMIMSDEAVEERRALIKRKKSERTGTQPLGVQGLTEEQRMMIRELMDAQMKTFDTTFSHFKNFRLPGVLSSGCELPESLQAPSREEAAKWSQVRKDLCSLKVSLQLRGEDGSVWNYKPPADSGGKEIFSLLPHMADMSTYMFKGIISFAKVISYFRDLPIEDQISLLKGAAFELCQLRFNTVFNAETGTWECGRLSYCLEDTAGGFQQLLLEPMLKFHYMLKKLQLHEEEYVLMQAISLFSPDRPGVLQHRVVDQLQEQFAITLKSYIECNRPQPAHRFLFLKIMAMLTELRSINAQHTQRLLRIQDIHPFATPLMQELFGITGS

[4] = Cmax in mouse at 30 mg/kg, po administered as single dose by HPLC-MS analysis; assay type: ADME, organism-based; parameters: dose 30 mg/kg, route oral; settings: in vivo
[5] = AUC (0 to t) in mouse at 30 mg/kg, po administered as single dose by HPLC-MS analysis; assay type: ADME, organism-based; settings: in vivo
[6] = Metabolic stability in mouse plasma assessed as compound remaining at 1 uM after 24 hrs by HPLC-ESI-MS/MS analysis; assay type: ADME, cell-free; settings: read-out: Stability
[7] = n-octanol-water distribution coefficient, log D of the compound at pH 7.4 after 4 hrs by shake-flask method; assay type: physicochemical
[8] = Metabolic stability in mouse liver S9 fractions assessed as compound remaining at 1 uM after 1 hr by HPLC-ESI-MS/MS analysis in presence of NADPH regenerating system; assay type: ADME, subcellular, Liver S9 fraction; settings: read-out: Stability
[9] = Kinetic solubility of the compound in NaCl solution at 25 deg C after 2 hrs by HPLC-ESI-MS/MS analysis; assay type: physicochemical; settings: read-out: Kinetic_solubility
[10] = molecular target: T1, Ephrin type-A receptor 2; assay: Displacement of biotinylated-ephrin-A1 from EphA2 receptor (unknown origin) up to 100 uM preincubated for 1 hr followed by biotinylated-ephrin-A1-Fc addition measured after 4 hrs by ELISA
[11] = Cytotoxicity against human PC3 cells at 10 to 30 uM after 2 hrs by LDH release assay; assay type: cell-based; settings: pc-3, 2 h

## C[C@H](CCC(=O)N[C@@H](CO)C(=O)O)[C@H]1CC[C@H]2[C@@H]3CC=C4C[C@@H](O)CC[C@]4(C)[C@H]3CC[C@]12C
[1]
  pIC50: < 4.00

## C[C@H](CCC(=O)N[C@H](CC(=O)O)Cc1c[nH]c2ccccc12)[C@H]1CC[C@H]2[C@@H]3CC[C@@H]4C[C@H](O)CC[C@]4(C)[C@H]3CC[C@]12C
[2]
  pEC50: 5.40
[3]
  Activity: 30%
[4]
  Cmax: 14 nM
[5]
  AUC(0-t): 21.2 ng·h/mL
[6]
  remaining at 24 h, 1 µM: 98.3%
[7]
  logD at 4 h: 4.9
[8]
  remaining at 1 h, 1 µM: 56%
[9]
  solubility kinetic at 2 h: 31.8 µM (≈ 18.3 µg/mL)

## COC(=O)[C@H](Cc1c[nH]c2ccccc12)NC(=O)CC[C@@H](C)[C@H]1CC[C@H]2[C@@H]3CC=C4C[C@@H](O)CC[C@]4(C)[C@H]3CC[C@]12C
[10]
  inhibition: inactive

## C[C@H](CCC(=O)O)[C@H]1CC[C@H]2[C@@H]3CC=C4C[C@@H](O)CC[C@]4(C)[C@H]3CC[C@]12C
[1]
  pIC50: 4.40

## C[C@H](CCC(=O)NCC(=O)O)[C@H]1CC[C@H]2[C@@H]3CC=C4C[C@@H](O)CC[C@]4(C)[C@H]3CC[C@]12C
[10]
  inhibition: inactive

## C[C@H](CCC(=O)N[C@@H](Cc1ccccc1)C(=O)O)[C@H]1CC[C@H]2[C@@H]3CC=C4C[C@@H](O)CC[C@]4(C)[C@H]3CC[C@]12C
[1]
  pIC50: < 4.00

## C[C@H](CCC(=O)N[C@@H](Cc1c[nH]c2ccc(O)cc12)C(=O)O)[C@H]1CC[C@H]2[C@@H]3CC=C4C[C@@H](O)CC[C@]4(C)[C@H]3CC[C@]12C
[11]
  Activity: Non-toxic

## CSCC[C@H](NC(=O)CC[C@@H](C)[C@H]1CC[C@H]2[C@@H]3CC=C4C[C@@H](O)CC[C@]4(C)[C@H]3CC[C@]12C)C(=O)O
[10]
  inhibition: inactive
